These are literature values, as cited in patent US8685425B2, “Microencapsulation product and process” (priority 2004, dated 2014).

The structures appear in SMILES notation.

In the case of `CCN(CC)C(=O)c1cccc(C)c1` [DEET, N,N-diethyl-m-toluamide], the “solubility of DEET in water” value is “around 1%”.
